Values joined by “and” are separate entries in the source; they are usually repeats but may differ in a detail not shown here. Identical values can stand only once.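 Dose response: 5 concentrations. Exposure: 48 h. Format: 96-well plates. Endpoint: linear interpolation; highest concentration if not reached. The concentration for 50% growth inhibition is given as GI50. The concentration for full growth arrest is given as TGI.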
Tests used:
Test in all cases: NCI-60 cell line screen, 48 h
BT-549 breast = tested on: BT-549 breast
SF-295 CNS = tested on: SF-295 CNS
UACC-62 melanoma = tested on: UACC-62 melanoma
A549 NSCLC = tested on: A549 NSCLC
LOX IMVI melanoma = tested on: LOX IMVI melanoma
NCI-H23 lung = tested on: NCI-H23 lung
NCI-H460 lung = tested on: NCI-H460 lung
SK-OV-3 ovarian = tested on: SK-OV-3 ovarian
SW-620 colon = tested on: SW-620 colon
MALME-3M melanoma = tested on: MALME-3M melanoma

| SMILES | GI50 (BT-549 breast) [µM] | TGI (BT-549 breast) [µM] | GI50 (SF-295 CNS) | TGI (SF-295 CNS) | GI50 (UACC-62 melanoma) | TGI (UACC-62 melanoma) | GI50 (A549 NSCLC) [µM] | TGI (A549 NSCLC) [µM] | GI50 (LOX IMVI melanoma) [µM] | TGI (LOX IMVI melanoma) | GI50 (NCI-H23 lung) [µM] | TGI (NCI-H23 lung) | GI50 (NCI-H460 lung) | TGI (NCI-H460 lung) | GI50 (SK-OV-3 ovarian) [µM] | TGI (SK-OV-3 ovarian) [µM] | GI50 (SW-620 colon) | TGI (SW-620 colon) [µM] | TGI (MALME-3M melanoma) | GI50 (MALME-3M melanoma) [µM] |
| --- | --- | --- | --- | --- | --- | --- | --- | --- | --- | --- | --- | --- | --- | --- | --- | --- | --- | --- | --- | --- |
| CCOC(=O)C1=C(C)N(Cc2ccc(Cl)cc2Cl)C2(O)C=CC(=O)C3=C(O)c4ccccc4C(=O)C312 (stereo not drawn) | 21.6 | > 100 | 3.07 µM | 14.9 µM | 4.72 µM | 18.9 µM | 9.35 | > 100 | 2.75 | 16.1 µM | 3.61 | 16.1 µM | 5.55 µM | 43.2 µM | 17.4 | 91.7 | 4.74 µM | > 100 |  |  |
| NS(=O)(=O)c1ccc(N(/C=C/C(=O)C(F)(F)F)Cc2ccc(Cl)cc2)cc1 | 23.6 | 62.6 | 35.1 µM | > 100 µM | 20.3 µM | 45.3 µM | 27.7 | > 100 | 21.8 | 42.9 µM | 21.8 | 64.3 µM | 67.9 µM | > 100 µM | 36 | > 100 | 30.5 µM | > 100 |  |  |
| CSc1snc2sc3c(Cl)nnnc3c12 |  |  |  | 32 µM |  | 29.2 µM |  | 33.9 |  | 11.2 µM |  | 36 µM |  | 32.8 µM |  | 33.3 |  | 16.1 | 29.3 µM |  |
| Cc1cccc(C(C)(C)C)c1NC(=O)CCc1nc(=S)[nH][nH]1 |  |  |  | > 100 µM |  | > 100 µM |  | > 100 |  | > 100 µM |  | > 100 µM |  | > 100 µM |  | > 100 |  | > 100 | > 100 µM |  |
| CCOC(=O)c1cnc2c(ccc3ncccc32)c1NCCCN(CC)CC |  |  |  | > 100 µM |  | > 100 µM |  | > 100 |  | 33.6 µM |  | > 100 µM |  | > 100 µM |  | > 100 |  | > 100 | > 100 µM |  |
| CC(=O)O[C@@]1(C)[C@@H](C)C(=O)O[C@@H]2CCN3CC=C(COC(=O)[C@]1(C)O)[C@H]23 |  |  |  |  |  | > 100 µM |  | > 100 |  |  |  | > 100 µM |  | > 100 µM |  |  |  | > 100 | > 100 µM |  |
| CC(C)(C)c1ccc(OCCOCCOc2ccc(C(C)(C)C)cc2S(=O)(=O)Nc2ccc([N+](=O)[O-])cc2)c(S(=O)(=O)Nc2ccc([N+](=O)[O-])cc2)c1 |  |  |  | > 100 µM |  | > 100 µM |  | > 100 |  | > 100 µM |  | > 100 µM |  | > 100 µM |  | > 100 |  | > 100 | > 100 µM |  |
| O=C(O/N=C1/CCC/C1=C\c1ccccc1)c1ccc(Cl)c(Cl)c1 |  |  |  | > 100 µM |  | > 100 µM |  | > 100 |  | > 100 µM |  | > 100 µM |  | > 100 µM |  | > 100 |  | > 100 | > 100 µM |  |
| CC(C)=CCC/C(C)=C\CCC1(C)OC(=O)C2CC21 (stereo not drawn) |  | > 100 | > 100 µM and 49.8 µM | > 100 µM | > 100 µM and 34.4 µM | > 100 µM |  |  |  | 81.8 µM and 29 µM |  | > 100 µM | 41.7 µM and 14 µM | > 100 µM and 27 µM |  |  | 84.1 µM and 33.8 µM | > 100 | > 100 µM |  |
| O=C1/C(=C/c2ccc(Cl)cc2)CCC/C1=C\c1ccc(Cl)cc1 |  |  | 3.83 µM | > 100 µM | 4.39 µM | > 100 µM | 3.63 | > 100 | 1.69 | 3.42 µM | 3.06 | > 100 µM | 6.93 µM | > 100 µM | 9.84 | > 100 | 2.36 µM | 6.39 | > 100 µM | > 100 |
| Nc1ccc(-c2cccs2)cc1NC(=O)c1ccc(CCCC(=O)Nc2ccc(C3CC3N)cc2)cc1 (stereo not drawn) | 2.69 | > 100 |  |  | 1.28 µM | 5.47 µM |  |  |  |  |  |  |  |  | 4.37 | 37.1 |  |  | 3.77 µM | 1.06 |
| O=C1C2C(C(=O)N1c1ccccc1)C1([N+](=O)[O-])C=C3c4ccccc4N(C(=O)c4ccccc4)C32C2C(=O)N(c3ccccc3)C(=O)C21 (stereo not drawn) |  |  |  | > 100 µM |  | > 100 µM |  | > 100 |  | > 100 µM |  | > 100 µM |  | > 100 µM |  | > 100 |  | > 100 | > 100 µM |  |
| COc1ccc2c3c(c(C(=O)c4ccccc4)oc13)CCC2 |  |  |  | > 100 µM |  | > 100 µM |  | > 100 |  | > 100 µM |  | 41.4 µM |  | > 100 µM |  | > 100 |  | > 100 |  |  |
| O=C(Nc1cccc(Cl)c1)c1cccc(NC2=C(Cl)C(=O)N(Cc3ccccc3)C2=O)c1 | 36.9 | > 100 | 44.1 µM | > 100 µM | 21.1 µM | > 100 µM | > 100 | > 100 | 28.3 | > 100 µM | > 100 | > 100 µM | 37 µM | > 100 µM | > 100 | > 100 | 58.6 µM | > 100 |  |  |
| CC(C(N)C(=O)NC(C(=O)O)C1OC(n2ccc(=O)[nH]c2=O)C(O)C1O)C(O)c1ccc(O)cn1 (stereo not drawn) |  | > 100 |  | > 100 µM |  | > 100 µM |  | > 100 |  | > 100 µM |  | > 100 µM |  | > 100 µM |  |  |  | > 100 |  |  |
| COC(=O)C12OCC34C(CC5C(C)C6=CC(=O)OC6=CC5(C)C3C(O)C1O)OC(=O)C(O)C24 (stereo not drawn) |  |  | 0.351 µM | 0.956 µM and 6.03 µM | 0.262 µM | 0.779 µM and 1.91 µM | 0.415 | 23.2 | 0.0542 | 0.288 µM and 1.42 µM | 0.156 | 0.493 µM and 1.16 µM | 0.0616 µM | 0.716 µM and 1.18 µM | 0.328 | 24.6 | 0.282 µM | 9.4 | 0.351 µM and 0.665 µM | 0.0896 |
| NC1=NN(c2ccccc2)C(=O)C1C(=O)C(=O)Nc1nccs1 (stereo not drawn) |  |  |  | > 100 µM |  | > 100 µM |  | > 100 |  | > 100 µM |  | > 100 µM |  | > 100 µM |  | > 100 |  | > 100 | > 100 µM |  |
| CC1(C)NCCC[C@]2(C)[C@H]3CC[C@@H]4[C@H]5[C@H](C(=O)/C=C/c6ccccn6)CC[C@]5(CO)CC[C@@]4(C)[C@]3(C)CC[C@@H]12 | 2.27 | 11 | 1.82 µM | 3.47 µM | 4 µM | 17.2 µM | 2.88 | 11.2 |  |  | 3.33 | 14 µM | 1.78 µM | 3.49 µM | 12.9 | 30 | 1.82 µM | 3.49 | 3.51 µM | 1.77 |
